Experimental data reported in ChEMBL document CHEMBL4699417, “Leishmania infantum isolates exhibit high infectivity and reduced susceptibility to amphotericin B” (RSC Med Chem, 2020).

Tests used:
Leishmania infantum [1] = experiment: Antileishmanial activity against promastigote form of Leishmania infantum MCAN_UY_2015_mCO8 isolate assessed as decrease in parasite viability measured after 72 hrs by resazurin assay
Leishmania infantum [2] = experiment: Antileishmanial activity against promastigote form of Leishmania infantum MCAN_UY_2015_bPL7 isolate assessed as decrease in parasite viability measured after 72 hrs by resazurin assay
Leishmania infantum [3] = experiment: Antileishmanial activity against promastigote form of Leishmania infantum MCAN_UY_2015_gPL8 isolate assessed as decrease in parasite viability measured after 72 hrs by resazurin assay
Leishmania infantum [4] = experiment: Antileishmanial activity against promastigote form of Leishmania infantum MCAN_UY_2015_bCH11 isolate assessed as decrease in parasite viability measured after 72 hrs by resazurin assay
Leishmania infantum [5] = experiment: Antileishmanial activity against promastigote form of Leishmania infantum MHOM/BR/2002/LPC-RPV assessed as decrease in parasite viability measured after 72 hrs by resazurin assay
Leishmania infantum [6] = experiment: Antileishmanial activity against promastigote form of Leishmania infantum MCAN_UY_2015_gCH2 isolate assessed as decrease in parasite viability measured after 72 hrs by resazurin assay
Leishmania infantum [7] = experiment: Antileishmanial activity against amastigote form of Leishmania infantum MHOM/BR/2002/LPC-RPV assessed as decrease in parasite viability measured after 72 hrs by resazurin assay; format: functional, organism-based
Leishmania infantum [8] = experiment: Antileishmanial activity against amastigote form of Leishmania infantum MCAN_UY_2015_gCH2 isolate assessed as decrease in parasite viability measured after 72 hrs by resazurin assay; format: functional, organism-based
Leishmania infantum [9] = experiment: Antileishmanial activity against amastigote form of Leishmania infantum MCAN_UY_2015_gPL8 isolate assessed as decrease in parasite viability measured after 72 hrs by resazurin assay; format: functional, organism-based
Leishmania infantum [10] = experiment: Antileishmanial activity against amastigote form of Leishmania infantum MCAN_UY_2015_bCH11 isolate assessed as decrease in parasite viability measured after 72 hrs by resazurin assay; format: functional, organism-based
Leishmania infantum [11] = experiment: Antileishmanial activity against amastigote form of Leishmania infantum MCAN_UY_2015_bPL7 isolate assessed as decrease in parasite viability measured after 72 hrs by resazurin assay; format: functional, organism-based
Leishmania infantum [12] = experiment: Antileishmanial activity against amastigote form of Leishmania infantum MCAN_UY_2015_mCO8 isolate assessed as decrease in parasite viability measured after 72 hrs by resazurin assay; format: functional, organism-based

Compound | IC50 (Leishmania infantum [1]) [µM] | IC50 (Leishmania infantum [2]) [µM] | IC50 (Leishmania infantum [3]) [µM] | IC50 (Leishmania infantum [4]) [µM] | IC50 (Leishmania infantum [5]) [µM] | IC50 (Leishmania infantum [6]) [µM] | IC50 (Leishmania infantum [7]) [µM] | IC50 (Leishmania infantum [8]) [µM] | IC50 (Leishmania infantum [9]) [µM] | IC50 (Leishmania infantum [10]) [µM] | IC50 (Leishmania infantum [11]) [µM] | IC50 (Leishmania infantum [12]) [µM]
C[C@@H]1[C@H](O)[C@@H](C)/C=C/C=C/C=C/C=C/C=C/C=C/C=C/[C@H](O[C@@H]2O[C@H](C)[C@@H](O)[C@H](N)[C@@H]2O)C[C@@H]2O[C@](O)(C[C@@H](O)C[C@@H](O)[C@H](O)CC[C@@H](O)C[C@@H](O)CC(=O)O[C@H]1C)C[C@H](O)[C@H]2C(=O)O [AMPHOTERICIN B] | 12.7 | 24.9 | 24.4 | 24.6 | 6.5 | 24.8 | – | – | – | – | – | –
CC[C@H](C)C(=O)O[C@H]1C[C@@H](C)C=C2C=C[C@H](C)[C@H](CC[C@@H]3C[C@@H](O)CC(=O)O3)[C@H]21 [LOVASTATIN] | 25.4 | 25.3 | 25.4 | 25.3 | 12.9 | 25.3 | – | – | – | – | – | –
CCCCCCCCCCCCCCCCOP(=O)([O-])OCC[N+](C)(C)C [MILTEFOSINE] | 3.4 | 3.6 | 4.1 | 3.8 | 5.3 | 4.1 | – | – | – | – | – | –
CC1CS(=O)(=O)CCN1/N=C/c1ccc([N+](=O)[O-])o1 (stereo not given) [NIFURTIMOX] | 6.7 | 6.5 | 6 | 6.5 | 6.3 | 6.7 | – | – | – | – | – | –
MEGLUMINE ANTIMONATE | – | – | – | – | – | – | 50.1 | 50.4 | 50.1 | 50.5 | 50.2 | 51
